One test deals with E. coli Sens. 25922. Type of test: cell-based, Escherichia coli. As to the method: (§1) In order to determine the MIC values of the peptides, growth and inhibition of various bacteria were monitored after treatment with the peptides of the invention (Table 6).
(§2) E. coli bacteria were cultured with or without OMN6 in increasing concentrations of 0.8-200 μM and with or without Fetal Bovine Serum 10% for 17-20 hours. The growth of the bacteria was continuously monitored via spectrophotometry at 600 nm. As bacterial growth progresses, OD600 nm values rise, and where the growth is inhibited OD600 nm values remain constant.
(§3) The experimental system and parameters described here were used to determine the MIC values of OMN2, OMN6, OMN7 and OMN11 on various bacteria strains (Table 7 and Table 8).

In a further test the test system is E. coli ESBL BAA-198. Type of test: cell-based, Escherichia coli. As to the method: as §1, §2, §3
In test [1] the test system is Escherichia coli (ATCC BAA-198) ESBL. In words: Efficacy in mouse model of subcutaneous infection with E. coli. Type of test: in vivo, mice. As to the method:
Animals: Healthy adult female mice weighing 16-20 g were used. CD-I outbred (Harlan Breeding Labs, Jerusalem, Israel) were used in all experiments. Animals were caged in groups of 5-10 and were maintained on chow (Ralston Purina) and water ad-libitum.
Bacteria: Escherichia coli (ATCC BAA-198) is an extended spectrum beta-lactamase (ESBL) TEM-26 multi drug resistant strain. Stock cultures were grown in Tryptic Soy Broth (TSB) (Becton, Dickinson and company BD. Maryland, USA) at 37°.
Colonies were counted after incubation for 24 hours on TSB-agar (BD), and results were expressed as colony forming units (CFU)/ml.
Inoculum: All broth cultures were adjusted to 1×10^8 CFU/animal for the challenge dose by adding TSB to a final volume of 50 μl. Bacteria were administered via subcutaneous (SC) injection with tuberculin syringes capped with 29-gauge needles. Recipient animals had the right flank shaved and depilated with hair remover cream (ORNA19, Israel). To inject the inoculum, the needle was inserted SC 1 cm lateral to the thoracic spine and just anterior to the right hind extremity. The needle was tracked anteriorly and SC for 1 cm; then 50 μl of inoculum was injected.
OMN6 peptide at 8 mg/kg in a total volume of 80 μl was injected SC after one hour to the same area. All animals appeared well and fully active within 2-4 hours after this procedure. All animals were monitored for food and water consumption, mortality and any other adverse effects for the entire 5-day duration of the experiment.
Evaluation of Bacterial Burden: A 2 cm^2 area of skin was incised and the inner side, where the abscess was located, was scraped with a sterile scalpel. Scraped tissue was filtered through a 40 μm cell-strainer. Filtered mass was collected, centrifuged at 500 RPM for 2 minutes and a sample from the supernatant was plated on TBS-agar plates for 24 hours at 37°. Colonies were then counted and results are presented as CFU/abscess (see FIG. 10A).
Evaluation of Abscesses: Animals were assessed for the presence and size of abscesses on day 5. The animals were anesthetized (Ketamine 225 mg/kg/Xylazine 6 mg/kg BW IP), the right hind flank area was gently exposed by aseptic technique. Abscesses were recorded and then measured by calipers: the product of the longest diameter (D) and corresponding perpendicular diameter (d) was determined as “abscess size” (D×d) findings presented in mm^2 (see FIG. 10B).

A further test relates to GFPuv E. coli. Kind of test: GFP leakage from lysed GFPuv E. coli. Format: cell-based. Particulars: 50 μM for 30 minutes. The method, then:
In order to determine and evaluate the Mechanism of Action (MOA) by which the peptides achieve the remarkable antimicrobial effect they exert, the following experiments were conducted: GFPuv E. coli bacteria are a strain that upon induction expresses green fluorescent protein (GFP). The GFP fluorescence can be detected at 395/509 nm, while live bacteria can be detected via absorbance at 600 nm (OD600).
GFPuv E. coli bacteria ubiquitously express GFP in their cytoplasm upon induction and the fluorescent protein can be detected and visualized. […]
In another experiment, bacteria were grown and induced to express GFP. […] The supernatant (sup) from the two experiment groups CTRL and OMN6, was separated from the pellet and analyzed for the level of fluorescence units (FU) (see FIG. 4B). […] Fluorescence was detected only inside the bacteria which were concentrated in the pellet at the bottom of the tube. […] Both supernatants were probed for the presence of bacteria via absorbance at 600 nm and both supernatants were completely void of bacteria cells (data not shown). […] Thus, in the CTRL group, where the bacteria are intact, no fluorescence is detected in the sup while in the sup from the group treated with OMN6, the GFP that leaked out of the lysed cells is detected.

[2] abbreviates: mice, SC 1×10^8 CFU E. coli ESBL, OMN6 8 mg/kg SC after one hour, day 5.

Converted amounts (≈) assume the structure as drawn. “And” between values parts separate entries of the source, which are not always exact repeats. Equal entries are not always repeated. “Also recorded” adds a separate entry of the source. Where a SMILES comes first, the peptide text is derived from it.

What is called MIC is the least concentration at which growth counts as inhibited. A higher MIC goes with weaker potency. For `CC[C@H](C)[C@H](NC(=O)CNC(=O)[C@H](CC(=O)O)NC(=O)[C@H](CCCNC(=N)N)NC(=O)[C@@H](NC(=O)[C@H](CC(N)=O)NC(=O)[C@H](CCC(N)=O)NC(=O)CNC(=O)[C@@H](NC(=O)[C@H](CCCCN)NC(=O)[C@H](CCC(=O)O)NC(=O)[C@@H](NC(=O)[C@H](CCCCN)NC(=O)[C@H](CCCCN)NC(=O)[C@H](Cc1ccccc1)NC(=O)[C@H](CC(C)C)NC(=O)[C@H](CCCCN)NC(=O)[C@H](Cc1c[nH]c2ccccc12)NC(=O)[C@H](CCCCN)NC(=O)[C@H](CS)NC(=O)[C@@H](N)CCSC)[C@@H](C)CC)C(C)C)[C@@H](C)CC)C(=O)N[C@H](C(=O)N[C@@H](CCCCN)C(=O)N[C@@H](C)C(=O)NCC(=O)N1CCC[C@H]1C(=O)N[C@@H](C)C(=O)N[C@H](C(=O)N[C@@H](C)C(=O)N[C@H](C(=O)N[C@H](C(=O)NCC(=O)N[C@@H](CCC(N)=O)C(=O)N[C@@H](C)C(=O)N[C@H](C(=O)N[C@@H](CCC(N)=O)C(=O)N[C@H](C(=O)N[C@@H](C)C(=O)N[C@@H](CCCCN)C(=O)N[C@@H](CS)C(N)=O)[C@@H](C)CC)[C@@H](C)O)C(C)C)C(C)C)C(C)C)[C@@H](C)CC` [OMN6] (H-MCKWKLFKKIEKVGQNIRDGIIKAGPAVAVVGQATQIAKC-NH2; N-terminus and C-terminus assumed), in the test with E. coli Sens. 25922 (Sens. 25922), the MIC value turned out to be 6.25 µM (≈ 27.1 µg/mL). In addition, the “Minimal Inhibitory Conc. (MIC)” value with E. coli Sens. 25922 (Sens. 25922, 17 h) was found to be 12.5 µM. The MIC in the test with E. coli ESBL BAA-198 was 5 µM (≈ 21.7 µg/mL). In test [1] (OMN6 8 mg/kg SC versus sham-saline), the “Decrease in abscess size” value is 80%. In test [1] (OMN6 8 mg/kg SC versus sham-saline, 8 mg/kg), the “Decrease in bacteria burden” value was 93.3% and 94%. For the same compound, in test [1] (setting [2]), the “Average size of the abscesses (D×d)” value is given as 7.25 mm^2 and the Bacteria burden was determined as 20 CFU/mouse. In the test on GFPuv E. coli, the “GFP leakage / lysis of bacteria” value is listed as “massive leaking of GFP; also recorded: extensive lysis”.
